This note sets out measurements from ChEMBL document CHEMBL1909046, “DrugMatrix in vitro pharmacology data”.

As a reminder, the IC50 is the point on the concentration scale where inhibition reaches its midpoint. What is called Ki is the equilibrium dissociation constant of an inhibitor or competing ligand from its target.

Sequence of Sodium-dependent dopamine transporter (Q01959 whole entry): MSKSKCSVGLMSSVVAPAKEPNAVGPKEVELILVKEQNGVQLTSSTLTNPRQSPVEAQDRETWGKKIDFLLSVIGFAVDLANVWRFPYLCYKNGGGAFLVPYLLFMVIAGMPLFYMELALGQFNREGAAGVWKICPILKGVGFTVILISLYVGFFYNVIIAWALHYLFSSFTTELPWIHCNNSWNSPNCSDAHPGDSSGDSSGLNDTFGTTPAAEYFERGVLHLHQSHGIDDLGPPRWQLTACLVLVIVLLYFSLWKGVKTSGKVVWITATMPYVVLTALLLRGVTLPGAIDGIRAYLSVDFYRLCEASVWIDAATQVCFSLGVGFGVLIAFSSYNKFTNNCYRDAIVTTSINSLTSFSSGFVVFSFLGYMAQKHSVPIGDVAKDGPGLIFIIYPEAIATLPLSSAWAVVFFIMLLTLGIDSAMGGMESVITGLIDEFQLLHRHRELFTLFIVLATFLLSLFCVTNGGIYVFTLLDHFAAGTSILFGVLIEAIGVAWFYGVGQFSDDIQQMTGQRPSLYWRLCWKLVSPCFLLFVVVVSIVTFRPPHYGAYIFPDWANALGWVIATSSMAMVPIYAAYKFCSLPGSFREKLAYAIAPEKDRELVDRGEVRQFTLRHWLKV

In one assay the target is Melanocortin receptor 5 (Homo sapiens, UniProt P33032). Note: in other assays of this panel Not Active means under 50% inhibition at 10 µM.
Sequence of Melanocortin receptor 5 (P33032 whole entry): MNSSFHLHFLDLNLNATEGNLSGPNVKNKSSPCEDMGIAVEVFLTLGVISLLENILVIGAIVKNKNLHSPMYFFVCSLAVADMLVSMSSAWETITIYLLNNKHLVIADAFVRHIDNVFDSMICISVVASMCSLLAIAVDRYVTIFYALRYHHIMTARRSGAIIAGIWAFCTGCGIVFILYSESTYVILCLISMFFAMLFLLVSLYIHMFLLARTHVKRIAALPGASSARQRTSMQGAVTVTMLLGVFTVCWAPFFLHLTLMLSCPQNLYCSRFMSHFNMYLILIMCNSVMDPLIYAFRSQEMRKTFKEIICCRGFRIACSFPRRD
Assay: not given
It is filed as cell membranes, HEK293, Membrane. As to conditions: hek293.
Turning to `CN1CCN2c3ccccc3Cc3ccccc3C2C1` (configuration not stated) [MIANSERIN], the IC50 entry is “Not Active”.

With `Clc1ccccc1C(c1ccccc1)(c1ccccc1)n1ccnc1` [CLOTRIMAZOLE], the IC50 result is listed as “Not Active”.

The target of the next assay is 5-hydroxytryptamine receptor 1B (Rattus norvegicus, UniProt P28564). Note: in other assays of this panel Not Active means under 50% inhibition at 10 µM.
Sequence of 5-hydroxytryptamine receptor 1B (P28564 whole entry): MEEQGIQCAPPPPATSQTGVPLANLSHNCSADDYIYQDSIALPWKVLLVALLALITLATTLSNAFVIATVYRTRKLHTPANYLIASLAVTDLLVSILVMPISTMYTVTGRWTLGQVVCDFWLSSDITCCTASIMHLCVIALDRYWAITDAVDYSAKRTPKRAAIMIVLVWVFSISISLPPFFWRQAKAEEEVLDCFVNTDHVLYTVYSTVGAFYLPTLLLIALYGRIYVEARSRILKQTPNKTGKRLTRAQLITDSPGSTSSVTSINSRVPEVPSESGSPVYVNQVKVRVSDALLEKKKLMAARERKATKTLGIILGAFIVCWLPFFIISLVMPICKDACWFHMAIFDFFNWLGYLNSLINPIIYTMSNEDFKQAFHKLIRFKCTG
Assay: not given
The class given is cell membranes, Wistar, Cerebral cortex, Membrane.
Settings: not given
Regarding `CN1CCN2c3ccccc3Cc3ccccc3C2C1` (configuration not stated) [MIANSERIN], the 50% inhibitory concentration (IC50) result was “Not Active”.

Still in this assay, the particulars now being: read-out: IC50.
As for `Clc1ccccc1C(c1ccccc1)(c1ccccc1)n1ccnc1` [CLOTRIMAZOLE], the IC50 was found to be 27.3 µM.

Still in this assay, the particulars now being: read-out: Ki.
For `Clc1ccccc1C(c1ccccc1)(c1ccccc1)n1ccnc1` [CLOTRIMAZOLE], the Ki was found to be 12.4 µM.

Another assay deals with Tyrosine-protein kinase Fyn (Homo sapiens, UniProt P06241). Description: biochemical. It is filed as cell-based, Insect cells. As to conditions: insect cells.
Sequence of Tyrosine-protein kinase Fyn (P06241 whole entry): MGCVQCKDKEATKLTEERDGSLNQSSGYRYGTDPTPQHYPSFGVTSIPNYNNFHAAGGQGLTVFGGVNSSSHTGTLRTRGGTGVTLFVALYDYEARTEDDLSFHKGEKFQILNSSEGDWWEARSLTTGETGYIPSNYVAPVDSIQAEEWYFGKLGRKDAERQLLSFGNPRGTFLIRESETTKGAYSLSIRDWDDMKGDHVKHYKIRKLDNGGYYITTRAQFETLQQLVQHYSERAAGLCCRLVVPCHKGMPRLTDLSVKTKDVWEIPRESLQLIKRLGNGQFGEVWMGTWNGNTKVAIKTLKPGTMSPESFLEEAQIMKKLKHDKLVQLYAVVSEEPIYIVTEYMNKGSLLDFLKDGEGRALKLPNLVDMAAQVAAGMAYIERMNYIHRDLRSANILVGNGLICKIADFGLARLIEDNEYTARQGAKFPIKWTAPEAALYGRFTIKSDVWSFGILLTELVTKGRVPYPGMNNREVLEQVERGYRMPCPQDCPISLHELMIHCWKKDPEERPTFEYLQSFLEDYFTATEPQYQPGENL
Take `CN1CCN2c3ccccc3Cc3ccccc3C2C1` (configuration not stated) [MIANSERIN]: the IC50 result is “Not Active”.

Staying with this assay, now noted: read-out: IC50.
Turning to `Clc1ccccc1C(c1ccccc1)(c1ccccc1)n1ccnc1` [CLOTRIMAZOLE], the IC50 was 31.9 µM.

For a further assay, the target named is T1, Caspase-1 (Homo sapiens, UniProt P29466).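 Note: Caspase-1 enzyme inhibition assay with a peptide substrate; in other assays of this panel Not Active means under 50% inhibition at 10 µM.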
T1 sequence (P29466 whole entry): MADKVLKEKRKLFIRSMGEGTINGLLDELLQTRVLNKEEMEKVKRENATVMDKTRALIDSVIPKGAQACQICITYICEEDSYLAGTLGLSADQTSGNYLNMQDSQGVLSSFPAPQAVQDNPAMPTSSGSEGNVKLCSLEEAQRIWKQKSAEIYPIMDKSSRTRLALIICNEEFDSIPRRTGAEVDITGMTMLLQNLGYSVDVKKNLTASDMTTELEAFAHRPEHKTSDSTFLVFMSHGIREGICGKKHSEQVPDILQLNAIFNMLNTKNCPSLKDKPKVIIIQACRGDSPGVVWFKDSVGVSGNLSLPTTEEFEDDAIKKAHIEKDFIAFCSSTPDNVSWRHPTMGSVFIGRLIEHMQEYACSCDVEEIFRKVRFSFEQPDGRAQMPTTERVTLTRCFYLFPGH
Assay: not given
Also noted: species or system Escherichia coli.
Settings: not given
For `CN1CCN2c3ccccc3Cc3ccccc3C2C1` (configuration not stated) [MIANSERIN], the IC50 result was “Not Active”.

Turning to `Clc1ccccc1C(c1ccccc1)(c1ccccc1)n1ccnc1` [CLOTRIMAZOLE], the IC50 result is on record as “Not Active”.

The target of another assay is Melanocortin receptor 3 (Homo sapiens, UniProt P41968). Note: in other assays of this panel Not Active means under 50% inhibition at 10 µM.
Sequence of Melanocortin receptor 3 (P41968 whole entry): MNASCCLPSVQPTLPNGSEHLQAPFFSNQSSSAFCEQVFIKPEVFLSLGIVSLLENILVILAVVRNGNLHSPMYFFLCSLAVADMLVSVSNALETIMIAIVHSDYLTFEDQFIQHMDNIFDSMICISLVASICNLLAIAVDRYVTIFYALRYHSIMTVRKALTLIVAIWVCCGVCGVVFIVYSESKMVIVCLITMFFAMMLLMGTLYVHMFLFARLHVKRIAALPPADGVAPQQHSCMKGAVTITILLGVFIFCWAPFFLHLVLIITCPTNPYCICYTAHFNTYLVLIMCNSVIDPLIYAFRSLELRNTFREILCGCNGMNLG
Assay: not given
It is filed as cell membranes, Membrane. The conditions noted are these: hek293.
On to `CN1CCN2c3ccccc3Cc3ccccc3C2C1` (configuration not stated) [MIANSERIN], for which the IC50 result is “Not Active”.

Turning to `Clc1ccccc1C(c1ccccc1)(c1ccccc1)n1ccnc1` [CLOTRIMAZOLE], the half-inhibitory concentration (IC50) result was “Not Active”.

The target in a further assay is Receptor tyrosine-protein kinase erbB-2 (Homo sapiens, UniProt P04626). The assay can be described thus: biochemical. It is filed as cell-based, Insect cells. As to conditions: insect cells.
Sequence of Receptor tyrosine-protein kinase erbB-2 (P04626 whole entry): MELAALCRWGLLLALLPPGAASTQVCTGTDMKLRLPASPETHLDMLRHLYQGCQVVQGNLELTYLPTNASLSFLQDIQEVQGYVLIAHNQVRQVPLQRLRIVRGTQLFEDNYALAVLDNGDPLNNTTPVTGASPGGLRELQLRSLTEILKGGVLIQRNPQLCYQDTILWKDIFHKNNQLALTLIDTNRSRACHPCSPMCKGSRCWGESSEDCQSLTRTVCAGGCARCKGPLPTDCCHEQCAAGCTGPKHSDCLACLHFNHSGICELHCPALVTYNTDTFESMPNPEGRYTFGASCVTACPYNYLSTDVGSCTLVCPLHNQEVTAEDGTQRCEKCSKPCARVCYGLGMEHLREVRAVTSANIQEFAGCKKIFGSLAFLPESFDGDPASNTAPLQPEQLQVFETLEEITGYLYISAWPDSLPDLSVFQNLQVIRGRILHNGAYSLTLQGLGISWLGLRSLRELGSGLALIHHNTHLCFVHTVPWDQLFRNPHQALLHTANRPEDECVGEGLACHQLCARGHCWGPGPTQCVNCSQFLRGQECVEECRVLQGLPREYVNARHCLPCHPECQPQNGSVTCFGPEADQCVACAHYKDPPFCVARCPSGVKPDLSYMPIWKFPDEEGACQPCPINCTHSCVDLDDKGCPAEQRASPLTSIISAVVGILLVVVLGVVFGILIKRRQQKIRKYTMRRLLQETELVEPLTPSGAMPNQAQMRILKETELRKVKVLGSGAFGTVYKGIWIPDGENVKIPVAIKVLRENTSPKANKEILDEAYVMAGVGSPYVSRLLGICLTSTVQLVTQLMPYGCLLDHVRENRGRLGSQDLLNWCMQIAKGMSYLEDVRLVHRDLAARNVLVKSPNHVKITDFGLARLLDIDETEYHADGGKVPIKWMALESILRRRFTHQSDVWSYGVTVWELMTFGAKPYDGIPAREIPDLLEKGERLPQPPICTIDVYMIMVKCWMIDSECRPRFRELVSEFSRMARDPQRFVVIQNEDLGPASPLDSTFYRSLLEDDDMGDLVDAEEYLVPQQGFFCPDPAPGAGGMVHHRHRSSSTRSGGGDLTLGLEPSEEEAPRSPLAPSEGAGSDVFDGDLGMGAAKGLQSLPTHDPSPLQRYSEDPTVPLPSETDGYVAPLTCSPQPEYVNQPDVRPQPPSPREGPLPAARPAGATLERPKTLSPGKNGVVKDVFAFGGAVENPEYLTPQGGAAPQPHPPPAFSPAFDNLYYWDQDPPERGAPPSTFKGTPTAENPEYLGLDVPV
Consider `CN1CCN2c3ccccc3Cc3ccccc3C2C1` (configuration not stated) [MIANSERIN], for which the IC50 entry is “Not Active”.

The same assay, now with this note: read-out: IC50.
For the molecule `Clc1ccccc1C(c1ccccc1)(c1ccccc1)n1ccnc1` [CLOTRIMAZOLE], the IC50 came out at 66.4 µM.

In the next assay the target is Histamine H2 receptor (Homo sapiens, UniProt P25021). Note: in other assays of this panel Not Active means under 50% inhibition at 10 µM.
Sequence of Histamine H2 receptor (P25021 whole entry): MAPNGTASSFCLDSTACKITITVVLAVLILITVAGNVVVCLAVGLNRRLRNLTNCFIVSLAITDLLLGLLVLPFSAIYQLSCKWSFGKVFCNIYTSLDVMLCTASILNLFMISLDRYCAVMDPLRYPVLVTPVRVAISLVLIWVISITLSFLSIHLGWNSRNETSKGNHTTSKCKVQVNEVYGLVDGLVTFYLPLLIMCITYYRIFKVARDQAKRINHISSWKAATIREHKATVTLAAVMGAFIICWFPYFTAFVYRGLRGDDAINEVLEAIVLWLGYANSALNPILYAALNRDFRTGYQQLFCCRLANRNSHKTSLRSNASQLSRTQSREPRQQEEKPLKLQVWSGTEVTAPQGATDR
Assay: not given
The conditions noted are these: read-out: IC50. It is filed as cell membranes, CHO-K1, Membrane.
For the molecule `Clc1ccccc1C(c1ccccc1)(c1ccccc1)n1ccnc1` [CLOTRIMAZOLE], the IC50 worked out at 5.17 µM.

Staying with this assay, now noted: read-out: Ki.
In the case of `Clc1ccccc1C(c1ccccc1)(c1ccccc1)n1ccnc1` [CLOTRIMAZOLE], the Ki was determined as 5.08 µM.

In the next assay the target is T2, Muscarinic acetylcholine receptor M5 (Homo sapiens, UniProt P08912). Note: in other assays of this panel Not Active means under 50% inhibition at 10 µM.
T2 sequence (P08912 whole entry): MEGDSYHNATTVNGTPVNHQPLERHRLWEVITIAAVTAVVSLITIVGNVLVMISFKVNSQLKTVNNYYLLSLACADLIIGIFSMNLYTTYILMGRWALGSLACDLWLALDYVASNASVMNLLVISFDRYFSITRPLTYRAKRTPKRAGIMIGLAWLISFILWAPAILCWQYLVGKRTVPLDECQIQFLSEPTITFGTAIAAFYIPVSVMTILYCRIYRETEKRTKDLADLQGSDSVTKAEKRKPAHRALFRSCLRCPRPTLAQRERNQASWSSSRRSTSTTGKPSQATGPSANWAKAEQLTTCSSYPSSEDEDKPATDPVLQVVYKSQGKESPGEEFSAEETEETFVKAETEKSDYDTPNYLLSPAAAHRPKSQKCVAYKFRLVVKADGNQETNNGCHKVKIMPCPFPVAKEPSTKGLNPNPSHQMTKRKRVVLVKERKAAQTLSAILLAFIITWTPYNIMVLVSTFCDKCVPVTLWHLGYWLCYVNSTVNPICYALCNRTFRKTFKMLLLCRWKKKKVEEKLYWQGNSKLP
Assay: not given
The class given is cell membranes, CHO-K1, Membrane. As to conditions: read-out: IC50.
As for `CN1CCN2c3ccccc3Cc3ccccc3C2C1` (configuration not stated) [MIANSERIN], the IC50 is 0.32 µM.

The same assay, now with this note: read-out: Ki.
`CN1CCN2c3ccccc3Cc3ccccc3C2C1` (configuration not stated) [MIANSERIN]: the Ki was determined as 0.23 µM.

The target of a further assay is T3, Neutrophil elastase (Homo sapiens, UniProt P08246).
T3 sequence (P08246 whole entry): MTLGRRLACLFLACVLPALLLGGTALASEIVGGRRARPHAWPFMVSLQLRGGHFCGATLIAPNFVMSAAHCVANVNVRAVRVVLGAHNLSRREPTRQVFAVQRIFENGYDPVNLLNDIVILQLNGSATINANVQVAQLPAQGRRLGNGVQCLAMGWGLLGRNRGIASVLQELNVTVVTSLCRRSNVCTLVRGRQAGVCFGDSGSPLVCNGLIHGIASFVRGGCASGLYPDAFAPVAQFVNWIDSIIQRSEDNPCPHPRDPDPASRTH
Assay: not given
Settings: not given
It is filed as tissue-based.
On to `CN1CCN2c3ccccc3Cc3ccccc3C2C1` (configuration not stated) [MIANSERIN], for which the IC50 entry is on record as “Not Active”.

`Clc1ccccc1C(c1ccccc1)(c1ccccc1)n1ccnc1` [CLOTRIMAZOLE]: the IC50 entry is listed as “Not Active”.

In a further assay the target is Insulin receptor (Rattus norvegicus, UniProt P15127). Note: in other assays of this panel Not Active means under 50% inhibition at 10 µM.
Assay: not given
It is filed as cell membranes, Wistar, Liver, Membrane.
Settings: not given
Regarding `CN1CCN2c3ccccc3Cc3ccccc3C2C1` (configuration not stated) [MIANSERIN], the IC50 entry was “Not Active”.

As for `Clc1ccccc1C(c1ccccc1)(c1ccccc1)n1ccnc1` [CLOTRIMAZOLE], the IC50 result is listed as “Not Active”.

The next assay addresses T4, Muscarinic acetylcholine receptor M4 (Homo sapiens, UniProt P08173).
T4 sequence (P08173 whole entry): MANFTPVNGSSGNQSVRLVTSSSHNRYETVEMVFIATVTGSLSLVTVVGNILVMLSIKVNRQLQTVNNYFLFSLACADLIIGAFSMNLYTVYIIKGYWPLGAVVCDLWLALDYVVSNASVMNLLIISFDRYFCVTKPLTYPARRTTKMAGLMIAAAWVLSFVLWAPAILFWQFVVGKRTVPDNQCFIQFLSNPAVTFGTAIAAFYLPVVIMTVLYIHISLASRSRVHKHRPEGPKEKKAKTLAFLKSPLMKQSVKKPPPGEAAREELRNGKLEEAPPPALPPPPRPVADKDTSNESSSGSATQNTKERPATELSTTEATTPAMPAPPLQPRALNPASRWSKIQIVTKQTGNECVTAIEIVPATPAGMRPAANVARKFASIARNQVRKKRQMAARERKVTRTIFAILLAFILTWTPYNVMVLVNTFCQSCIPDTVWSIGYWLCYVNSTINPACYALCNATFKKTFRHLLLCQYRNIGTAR
Assay: not given
It is filed as cell membranes, CHO-K1, Membrane. The conditions noted are these: read-out: IC50.
In the case of `CN1CCN2c3ccccc3Cc3ccccc3C2C1` (configuration not stated) [MIANSERIN], the IC50 stood at 2.07 µM.

The assay is the same for the next values; noted with them: read-out: Ki.
On to `CN1CCN2c3ccccc3Cc3ccccc3C2C1` (configuration not stated) [MIANSERIN], for which the Ki came out at 0.288 µM.

Take `Clc1ccccc1C(c1ccccc1)(c1ccccc1)n1ccnc1` [CLOTRIMAZOLE]: the Ki amounted to 1.64 µM.

Another assay has as its target Sodium-dependent dopamine transporter (Homo sapiens, UniProt Q01959). Description: DRUGMATRIX: Dopamine Transporter radioligand binding (ligand: [125I] RTI-55). The class given is cell membranes, CHO-K1, Membrane. The conditions noted are these: Not Active = under 50% inhibition at 10 µM; read-out: IC50.
In the case of `Clc1ccccc1C(c1ccccc1)(c1ccccc1)n1ccnc1` [CLOTRIMAZOLE], the IC50 was determined as 5.58 µM.

Still in this assay, the particulars now being: Not Active = under 50% inhibition at 10 µM; read-out: Ki.
`Clc1ccccc1C(c1ccccc1)(c1ccccc1)n1ccnc1` [CLOTRIMAZOLE]: the Ki was 4.43 µM.

The assay is the same for the next values; noted with them: cho-k1; Not Active = under 50% inhibition at 10 µM.
For the molecule `CN1CCN2c3ccccc3Cc3ccccc3C2C1` (configuration not stated) [MIANSERIN], the IC50 entry is on record as “Not Active”.
